This is an account of results in patent publication US8133472B2, “Cyclopeptides containing RGD mimetics as imaging markers for integrins” (Siemens Medical Solutions USA, Inc., priority 2008, dated 2012).

Several values for one entry are separate records, joined by “and”; a condition that tells them apart may be missing. Equal entries are not always repeated. Non-standard residues stand in square brackets, D forms with d. Residues, ends and D or L forms follow the SMILES beside them. *: point of attachment. X1 = O=C(Cn1cc(CCCF)nn1)NCC1OC(C(=O)*)C(O)C(O)C1O

For data set [1], the system named is U87MG human glioblastoma tumor xenograft. The data set is classed as in vivo, mouse. As for the experimental part: PET Studies: In vivo microPET imaging of a tumor-bearing mouse is performed on an anesthetized mouse bearing tumor xenograft of U87MG human glioblastoma after administration of the test imaging cyclic peptides. Animals are induced with 5% isoflurane/oxygen until anesthetized and then maintained on 2-2.5% isoflurane/oxygen inhalation for the duration of each PET scanning procedure (up to 2 hours). Anesthetized animals are placed on a heated pad for the duration of each PET scan. Animals are scanned at 1 hour post-injection for 30 min.

A short description of the next data set: FIG. 5. As to the method: Table printed on a drawing sheet, FIG. 5
The patent's description of the figure: FIG. 5 is a microPET imaging of Compound 19 in a U87MG xenograft mouse model at 1 hour post-injection.
First reader's note: Tissue uptake from the microPET image beside the table; rows are the right-side (RS) tumor, the left-side (LS) tumor and muscle.

Data set [2] concerns the target T1, Integrin αvβ3 expressing U87MG cells (Homo sapiens, UniProt P05106+P06756).
T1 construct: Integrin αvβ3 expressing U87MG cells; endogenous in cells; host or cells: U87MG
Description: Cell-based integrin receptor-binding competition assay against fluorescent compound 21. The settings on record: 10 nM compound 21, 2 hrs, FIG. 4. As for the experimental part: After incubation, cells were washed three times to eliminate unbound cyclic peptides. Fluorescence readings (RLU) were then taken (excitation at 491 nm, emission at 518 nm, cutoff 515 nm). Fluorescence signals of wells without cyclic peptides were set as 100% and used as control. […] All treatments were carried out in triplicates.

Data set [3] concerns the target T2, integrin αvβ3 (Homo sapiens, UniProt P05106+P06756). Briefly: Binding affinity to integrin αvβ3, summary statements (FIG. 1-4). The conditions noted are these: general statement. As to the method:
Compound 20 was immobilized onto a CM5 chip (Supplier: Biacore. CM5 is a SPR chip with a carboxymethylated dextran covalently attached to a gold surface) via amine coupling. Intergrin αvβ3 samples at 50 nM concentration, premixed with a wide range of concentrations of RGD test compound (0˜2000 nM), were flowed through the CM5 chip at 14° C.
The interactions between the flowing integrin αvβ3 sample and the surface of the chip were recorded by Biacore sensorgram signals. Flow cell #1 served as blank control and the flow cell #2 were coated with compound 20. After subtraction the blank signal of flow cell #1 from the signal of flow cell #2, the resulting sensorgram signals from each cycle were converted into percentage values and the Kd and IC50 values for each cyclopeptides were calculated.
Inhibitory effects of cyclic peptides were quantified by measuring their effects on the interactions between immobilized integrin and biotinylated soluble ligand. Integrin αvβ3 was immobilized on a 96 well plate. […] The wells were incubated with alkaline-phsphatase substrate and the intensities of yellow color product were measured in plate reader. […]
Integrin αvβ3 expressing U87MG cells were incubated with a series of concentration of cyclic peptides (0.01, 0.1, 1, 10, 100, 1000, 10000 nM) in the presence of 10 nM of green fluorescence labeled compound 21 for 2 hrs. […]

The test system of a further data set is tumor. The conditions noted are these: in vivo, cited from earlier work.
For data set [4] the following is noted: cited from earlier work.
For another data set, the system named is M21 melanoma xenograft. The conditions noted are these: integrin-positive M21 melanoma xenograft; cited from earlier work.
The subject of data set [5] is A431 human squamous cell carcinoma model. The settings on record: integrin negative cell line A431; cited from earlier work.
The target of data set [6] is T2, integrin αvβ3. The settings on record: background statement; cited from earlier work.
The mark [7] stands for this setting: comparison of cyclic peptides 18 and 23.
The mark [8] stands for this setting: comparison among cyclic peptides 4, 1 and RGDfK.

With `C[C@@H]1NC(=O)[C@H](CCCNC(=N)N)NC(=O)[C@H](CCCCNC(=O)C2O[C@H](CNC(=O)Cn3cc(CCC[18F])nn3)[C@H](O)C(O)[C@@H]2O)NC(=O)[C@@H](Cc2ccccc2)NC(=O)[C@H](CC(=O)O)NC1=O` (some centres unmarked) [Compound 19], the “tumor uptake and retention” value in data set [1] (microPET, 1 hour post-injection, FIG. 5) was “good tumor uptake and retention”. Moreover, the “wash-out rate from muscle and other healthy tissues” value in data set [1] (mouse, in vivo) is “fast wash-out rate”. The “%ID/g” value in the data set “FIG. 5” was 0.042 %ID/g and 0.034 %ID/g and 0.025 %ID/g.

With `C[C@@H]1NC(=O)[C@H](CCCNC(=N)N)NC(=O)[C@H](CCCCNC(=O)CCN(CCC(=O)NCCCC[C@@H]2NC(=O)[C@@H](Cc3ccccc3)NC(=O)[C@H](CC(=O)O)NC(=O)[C@H](C)NC(=O)[C@H](CCCNC(=N)N)NC2=O)C(=O)CCOCCOCCOCCOCCNC(=O)n2cc(CCCF)nn2)NC(=O)[C@@H](Cc2ccccc2)NC(=O)[C@H](CC(=O)O)NC1=O` [Compound 23], in data set [2] (setting [7]), the “potency (competition of binding)” value was “very similar in potency”.

As for `C[C@@H]1NC(=O)[C@H](CCCNC(=N)N)NC(=O)[C@H](CCCCN)NC(=O)[C@@H](Cc2ccccc2)NC(=O)[C@H](CC(=O)O)NC1=O` [Compound 4] (cyclo(RAD[dF]K)), the “potency (competition of binding)” value in data set [2] (setting [8]) is given as “very similar in potency”. Also, the “binding affinity to integrin αvβ3” value on integrin αvβ3 [3] is recorded as “high binding affinity”.

Regarding `C[C@@H]1NC(=O)[C@H](CCCNC(=N)N)NC(=O)[C@H](CCCCNC(=O)C2OC(CNC(=O)Cn3cc(CCCF)nn3)C(O)C(O)C2O)NC(=O)[C@@H](Cc2ccccc2)NC(=O)[C@H](CC(=O)O)NC1=O` (some centres unmarked) [Compound 18] (cyclo(AD[dF]K(X1)R)), the “potency (competition of binding)” value in data set [2] (setting [7]) was “very similar in potency”. In addition, at integrin αvβ3 [3], the “binding affinity to integrin αvβ3” value is “high binding affinity”.

On to `N=C(N)NCCC[C@@H]1NC(=O)[C@H](CCCCN)NC(=O)[C@@H](Cc2ccccc2)NC(=O)[C@H](CC(=O)O)NC(=O)[C@H](CO)NC1=O` [Compound 1] (cyclo(D[dF]KRS)), for which the “potency (competition of binding)” value in data set [2] (setting [8]) is “very similar in potency”.

In the case of c(RGDyV), the tumor uptake entry with tumor (125I-labeled peptide) is recorded as “receptor-specific tumor uptake”. For the same compound, in the data set on tumor, the excretion entry is “unfavorable hepatobiliary excretion” and the tumor washout entry is listed as “rapid tumor washout”.

With `CC([18F])C(=O)NC[C@H]1OC(C(=O)NCCCC[C@@H]2NC(=O)[C@@H](Cc3ccccc3)NC(=O)[C@H](CC(=O)O)NC(=O)CNC(=O)[C@H](CCCNC(=N)N)NC2=O)[C@@H](O)C(O)C1O` (some centres unmarked) [[^18F]Galacto-RGD], in [4] (background statement), the “tumor standard uptake values” is given as “modest tumor standard uptake values”. In addition, the “tracer accumulation in organs” value in data set [4] (both preclinical models and human studies) is “prominent tracer accumulation in the liver, kidneys, spleen, and intestines”. Besides, in the data set on M21 melanoma xenograft, the tumor uptake result is “integrin αvβ3-specific tumor uptake”. For the same compound, in [5], the tracer localization result is “did not localize on tumor cells”. Moreover, the integrin binding affinity entry at integrin αvβ3 [6] is “relatively low integrin binding affinity”.
